Assay results published in patent US11214803B2, “Modulators of YAP1 expression” (Ionis Pharmaceuticals, Inc., priority 2019, dated 2022).
Strand notation (5' to 3'): a small letter for the sugar, then the base; units joined by * are phosphorothioate-linked, units joined directly phosphodiester-linked; [ ] holds rarer units or linkages, { } end groups; capitals alone tell only the bases. k = constrained ethyl (cEt); [5mC] = 5-methylcytosine; d = 2'-deoxy (DNA)

System: Yap1 mRNA
Test: Antisense inhibition of human Yap1 in A-431 cells by cEt gapmers, single dose (Example 2, RTS4814)
Format: cell-based
How it was run: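 Free uptake, 2,000 nM, ~48 h, A-431 at 5,000 cells/well. Readout: RT-qPCR (RTS4814), RIBOGREEN-normalized, % UTC. 16-mer 3-10-3 cEt gapmers, full PS backbone, all C as 5-methylcytosine.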

[1] = Yap1 mRNA as percent of untreated control, A-431 cells, 3-10-3 cEt gapmers targeting SEQ ID NO.: 1, and 2, Table 31
[2] = Table 24, Yap1 mRNA as percent of untreated control, 3-10-3 cEt gapmers targeting SEQ ID NO.: 1, and 2
[3] = Table 32, Yap1 mRNA, percent of untreated control, 3-10-3 cEt gapmers targeting SEQ ID NO.: 1, and 2
[4] = Table 6, A-431 cells, 5,000 cells per well, free uptake, 2,000 nM modified oligonucleotide, approx. 48 hours, RTS4814, normalized to RIBOGREEN, Yap1 mRNA relative to untreated control cells
[5] = Table 5, A-431 cells, 5,000 cells per well, free uptake, 2,000 nM modified oligonucleotide, approx. 48 hours, RTS4814, normalized to RIBOGREEN, Yap1 mRNA relative to untreated control cells
[6] = A-431 cells, 5,000 cells per well, free uptake, 2,000 nM modified oligonucleotide, approx. 48 hours, RTS4814, normalized to RIBOGREEN, Table 4, asterisk (*) = targets amplicon region of primer probe set

1075121 (kA*kA*kA*dA*dT*dT*dA*dG*d[5mC]*d[5mC]*dT*dA*d[5mC]*k[5mC]*kA*k[5mC]; antisense) [compound 1075121]
YAP1 (% UTC) [1]: 40 % UTC

1074762 (kG*k[5mC]*kT*dA*d[5mC]*d[5mC]*d[5mC]*dA*dA*dT*dA*d[5mC]*dA*kA*k[5mC]*k[5mC]; antisense) [Compound 1074762]
YAP1 (% UTC) [2]: 6 % UTC

1075314 (antisense kA*kA*kT*dA*dA*dA*dG*dT*d[5mC]*dT*dA*dA*dT*k[5mC]*k[5mC]*kA) [compound 1075314]
YAP1 (% UTC) [3]: 54 % UTC

1074506 (kT*kA*kA*dT*d[5mC]*dG*dA*dG*dA*dT*dT*dT*dA*kA*kA*kT; antisense) [Compound 1074506]
YAP1 (% UTC) [2]: 107 % UTC

716528 (antisense kT*kT*kA*dG*dG*dT*d[5mC]*dT*d[5mC]*d[5mC]*dT*dT*d[5mC]*kA*kG*kG) [Compound 716528]
YAP1 (% UTC) [4]: 70 % UTC

1076134 (kG*kA*kT*dT*dA*dG*dA*dG*dT*dT*dG*dG*dG*k[5mC]*kA*kT; antisense) [Compound 1076134]
YAP1 (% UTC) (Table 20, Yap1 mRNA, percent of untreated control, 3-10-3 cEt gapmers targeting SEQ ID NO.: 1 and 2): 10 % UTC

1074546 (k[5mC]*kA*k[5mC]*dT*d[5mC]*d[5mC]*d[5mC]*d[5mC]*dT*dA*dG*dG*d[5mC]*kA*k[5mC]*kT; antisense) [compound 1074546]
YAP1 (% UTC) [3]: 33 % UTC

1076401 (antisense kT*k[5mC]*kT*dA*dA*dA*dG*dA*d[5mC]*dT*d[5mC]*dT*d[5mC]*kA*kT*kT) [compound 1076401]
YAP1 (% UTC) [1]: 31 % UTC

716470 (kA*kA*kT*d[5mC]*dG*dA*dG*dA*d[5mC]*dT*dT*dA*dA*kA*kA*kA; antisense) [Compound 716470]
YAP1 (% UTC) [5]: 104 % UTC

1075495 (antisense k[5mC]*kT*kT*dA*dA*dT*dT*dG*dG*dT*dA*dA*d[5mC]*kT*kG*kA) [Compound 1075495]
YAP1 (% UTC) (Table 21, Yap1 mRNA, percent of untreated control, 3-10-3 cEt gapmers targeting SEQ ID NO.: 1 and 2): 19 % UTC

1074250 (antisense k[5mC]*kT*kG*dA*dT*d[5mC]*dG*dA*dT*dG*dT*dG*dA*kT*kT*kT) [Compound 1074250]
YAP1 (% UTC) [2]: 6 % UTC

716439 (kG*kT*kA*dT*dT*dT*dA*dA*dT*dA*dT*d[5mC]*dA*kG*kA*kT; antisense) [Compound 716439]
YAP1 (% UTC) [6]: 77 % UTC

1076457 (antisense kG*kA*kA*d[5mC]*dT*dA*dT*dA*dA*dT*d[5mC]*dT*dT*kA*kT*kA) [Compound 1076457]
YAP1 (% UTC) (Table 23, Yap1 mRNA as percent of untreated control, 3-10-3 cEt gapmers, single dose): 74 % UTC

716386 (kA*kT*kT*dT*d[5mC]*dT*d[5mC]*d[5mC]*dA*dT*d[5mC]*d[5mC]*dT*kG*kA*kG; antisense) [Compound 716386]
YAP1 (% UTC) [5]: 60 % UTC

1075012 (antisense k[5mC]*kT*kA*dT*dT*dG*dG*dA*dA*dT*dG*dT*dT*kA*kA*k[5mC]) [Compound 1075012]
YAP1 (% UTC) (Table 18, A-431 cells, 5,000 cells per well, free uptake, 2,000 nM modified oligonucleotide, approx. 48 hours, RTS4814, normalized to RIBOGREEN, Yap1 mRNA as percent of untreated control): 119 % UTC

716418 (k[5mC]*k[5mC]*kT*dG*dA*dG*dG*dG*d[5mC]*dT*d[5mC]*dT*dA*kT*kA*kA; antisense) [Compound 716418]
YAP1 (% UTC) [6]: 75 % UTC

1075571 (antisense k[5mC]*kA*kA*dA*dT*dA*dG*dA*dT*dA*d[5mC]*dT*dA*kA*kG*k[5mC]) [compound 1075571]
YAP1 (% UTC) (Table 33, Yap1 mRNA, percent of untreated control, 3-10-3 cEt gapmers targeting SEQ ID NO.: 1, and 2): 54 % UTC

1075786 (k[5mC]*kT*kA*dT*dA*dT*dT*dG*dA*dT*dT*d[5mC]*d[5mC]*kA*kG*kA; antisense) [Compound 1075786]
YAP1 (% UTC) [2]: 19 % UTC

1075653 (k[5mC]*kA*kT*dA*dA*dA*d[5mC]*dT*d[5mC]*dT*dG*d[5mC]*dT*kG*kT*k[5mC]; antisense) [Compound 1075653]
YAP1 (% UTC) (Table 19, A-431 cells, 5,000 cells per well, free uptake, 2,000 nM modified oligonucleotide, approx. 48 hours, RTS4814, normalized to RIBOGREEN, Yap1 mRNA as percent of untreated control): 58 % UTC

1074600 (antisense k[5mC]*kA*kG*d[5mC]*dT*dA*dA*d[5mC]*dT*d[5mC]*dA*dA*dA*kA*k[5mC]*k[5mC]) [Compound 1074600]
YAP1 (% UTC) (Table 22, Yap1 mRNA as percent of untreated control, 3-10-3 cEt gapmers, single dose): 29 % UTC

716561 (kA*kA*kG*dG*dT*dA*dT*dT*dA*d[5mC]*dA*dT*dA*kA*kG*kA; antisense) [Compound 716561]
YAP1 (% UTC) [4]: 58 % UTC
